Earlier results in patent US20110262453A1, “Markers for Assessing the Susceptibility of Cancer to IGF-1R Treatment” (priority 2008, published 2011).

Key:
IGF-1R over IR = IGF-1R over IR (Homo sapiens, UniProt P08069)
[1] = tested on: xenografted and allografted mice
[2] = tested on: cultured IGF-1R-positive tumor cells
IGF-1R = IGF-1R (Homo sapiens, UniProt P08069)
IGF-1R, sequence (P08069 31-1367): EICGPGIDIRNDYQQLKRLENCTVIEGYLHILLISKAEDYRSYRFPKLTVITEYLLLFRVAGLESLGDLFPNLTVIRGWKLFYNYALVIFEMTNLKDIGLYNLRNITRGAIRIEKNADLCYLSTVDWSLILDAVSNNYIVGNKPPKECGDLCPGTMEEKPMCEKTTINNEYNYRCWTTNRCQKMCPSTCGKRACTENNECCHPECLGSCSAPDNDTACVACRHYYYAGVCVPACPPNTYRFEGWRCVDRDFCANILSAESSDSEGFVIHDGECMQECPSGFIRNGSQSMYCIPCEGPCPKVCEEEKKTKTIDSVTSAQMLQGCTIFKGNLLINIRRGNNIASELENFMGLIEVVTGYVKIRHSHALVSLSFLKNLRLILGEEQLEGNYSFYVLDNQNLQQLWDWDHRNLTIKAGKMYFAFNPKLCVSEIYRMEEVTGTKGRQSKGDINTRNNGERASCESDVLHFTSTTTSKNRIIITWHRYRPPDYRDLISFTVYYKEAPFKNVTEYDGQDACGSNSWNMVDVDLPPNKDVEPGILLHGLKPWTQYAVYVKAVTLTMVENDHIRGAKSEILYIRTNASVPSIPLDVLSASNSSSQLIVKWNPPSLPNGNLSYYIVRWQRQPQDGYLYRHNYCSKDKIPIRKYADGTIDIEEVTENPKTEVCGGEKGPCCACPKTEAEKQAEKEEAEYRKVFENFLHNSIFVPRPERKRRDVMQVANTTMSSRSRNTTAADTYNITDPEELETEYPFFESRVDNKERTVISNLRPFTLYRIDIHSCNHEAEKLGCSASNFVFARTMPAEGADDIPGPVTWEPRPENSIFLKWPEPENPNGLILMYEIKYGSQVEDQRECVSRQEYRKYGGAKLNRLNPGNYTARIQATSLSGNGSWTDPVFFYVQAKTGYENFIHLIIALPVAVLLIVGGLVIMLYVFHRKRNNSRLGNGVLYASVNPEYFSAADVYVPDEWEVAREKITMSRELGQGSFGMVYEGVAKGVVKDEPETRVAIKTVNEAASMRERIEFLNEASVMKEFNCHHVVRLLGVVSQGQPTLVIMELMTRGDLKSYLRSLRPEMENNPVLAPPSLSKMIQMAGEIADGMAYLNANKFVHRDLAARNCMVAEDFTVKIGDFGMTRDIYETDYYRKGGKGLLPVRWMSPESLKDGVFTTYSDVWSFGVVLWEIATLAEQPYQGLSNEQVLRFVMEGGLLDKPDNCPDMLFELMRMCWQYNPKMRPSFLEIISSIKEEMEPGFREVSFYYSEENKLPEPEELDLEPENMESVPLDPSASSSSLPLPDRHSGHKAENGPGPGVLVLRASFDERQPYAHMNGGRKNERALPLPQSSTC

IGF-1R over IR, sequence (P08069 31-1367): as above

For `CC(C)(C)c1cc(C=C(C#N)C#N)cc(Br)c1O` [AG1024], the “selectivity towards IGF-1R over IR (in words)” value (IGF-1R over IR) is given as “some selectivity”.
In the case of `N#C/C(=C\c1ccc(O)c(O)c1)C(=O)c1ccc(O)c(O)c1` [AG538], the “selectivity towards IGF-1R over IR (in words)” value (IGF-1R over IR) is given as “some selectivity”.
For `Nc1ncnc2c1c(-c1cccc(OCc3ccccc3)c1)cn2C1CC(CN2CCC2)C1` (centres unmarked) [NVP-AEW541], the “selectivity towards IGF-1R over IR” value (IGF-1R over IR) is listed as 100 fold.
In the case of `COc1cc([C@@H]2c3cc4c(cc3[C@H](O)[C@H]3COC(=O)[C@@H]23)OCO4)cc(OC)c1OC` [PPP, picropodophyllin], the LD50 (rodents) is listed as over 500 mg/kg, the tumor regression [1] is listed as “complete tumor regression” and the apoptosis [2] is listed as “induced apoptosis”. For the same compound, the “pAkt and phosphorylated extracellular signal regulated kinase 1 and 2 (pErk1/2)” value [2] was “reduced” and the IGF-1R activity (IGF-1R) was “efficiently blocked IGF-1R activity”.
